Test results from US11174250B2, “Substituted carboxamides as inhibitors of WDR5 protein-protein binding” (PROPELLON THERAPEUTICS INC., priority 2016, dated 2021).
Read-outs that look alike come from different tables or passages of the source.

Molecular target: WDR5 protein (Homo sapiens (Human), UniProt P61964)
Assay: Surface Plasmon Resonance (SPR) assay
Assay type: binding
Settings: for residence time: τ=1/koff, read-out: Residence Time (t, min)
[1] = SPR, Table 1, read-out: WDR5 binding affinity (KD)
[2] = SPR, Table 2, read-out: WDR5 binding affinity SPR (KD)
[3] = Table 4, effect of Fluoro-substitution, read-out: KD (SPR)

Experimental: Exemplary compounds of the application were dissolved in 100% DMSO at 10 mM, assayed fresh, and then stored at −20° C. for repeat studies and other experiments. Full length WDR5 with an N-terminal His tag and C-terminal AviTag (Avidity Inc.) was expressed in E. coli with coexpression of BirA to biotin label the protein in vivo. Purification was via Ni-NTA. The purified WDR5 protein has a molecular weight of 41976 Da.
SPR studies were performed using a Biacore™ T200 instrument (GE Health Sciences Inc.). Biotinylated WDR5 protein (approximately 3000RU) was stably captured to streptavidin coupled SA chips according to the manufacture's protocol (GE Health Sciences Inc.). The running buffer used was HBS-EP (20 mM Hepes pH 7.4, 150 mM NaCl, 3 mM EDTA, 0.05% P-20) plus 5% DMSO with a flow rate of 40p1/min. For SPR analysis, 5 different concentrations of each exemplary compound of the application were sprayed into 96 or 384 well plates using an HP D300 digital dispenser. […] Curve fitting and KD calculations were performed with the Biacore T200 Evaluation software (GE Health Sciences Inc).

Row | SMILES | Kd [1] | Kd [2] | residence time (SPR) | τ (Table 4, effect of Fluoro-substitution) | Kd [3]
1 | CN1CCN(c2ccc(-c3cc(CNC4CC4)ccc3F)cc2NC(=O)c2c[nH]c(=O)cc2C(F)(F)F)CC1 [Example 17, N-(5′-((cyclopropylamino)methyl)-2′-fluoro-4-(4-methylpiperazin-1-yl)-[1,1′-biphenyl]-3-yl)-6-oxo-4-(trifluoromethyl)-1,6-dihydropyridine-3-carboxamide] | 14 nM | 14 nM | 4.25 min | – | –
2 | CN1CCN(c2ccc(-c3cccc(CN4CCC(F)CC4)c3)cc2NC(=O)c2c[nH]c(=O)cc2C(F)(F)F)CC1 [reference compound] | – | – | – | 0.91 min | 30 nM
3 | Cc1c(F)ccc(C(=O)Nc2cc(-c3cc(CN4CCOCC4)ccc3F)ccc2N2CCN(C)CC2)c1Cl [Example 12, 2-chloro-4-fluoro-N-(2′-fluoro-4-(4-methylpiperazin-1-yl)-5′-(morpholinomethyl)-[1,1′-biphenyl]-3-yl)-3-methylbenzamide] | 93 nM | 93 nM | 0.6 min | – | –
4 | CC(=O)Nc1cc(C)c(C(=O)Nc2cc(-c3cc(CN4CCOCC4)ccc3F)ccc2N2CCN(C)CC2)cn1 [Example 106, 6-acetamido-N-(2′-fluoro-4-(4-methylpiperazin-1-yl)-5′-(morpholinomethyl)-[1,1′-biphenyl]-3-yl)-4-methylnicotinamide] | 8.3 nM | 829 nM | 3.2 min | – | –
5 | COc1cc(C(F)(F)F)c(C(=O)Nc2cc(-c3cc(CN4CCN(CC5CC5)CC4)ccc3F)ccc2N2CCN(C)CC2)cn1 [Example 107, N-(5′-((4-(cyclopropylmethyl)piperazin-1-yl)methyl)-2′-fluoro-4-(4-methylpiperazin-1-yl)-[1,1′-biphenyl]-3-yl)-6-methoxy-4-(trifluoromethyl)nicotinamide] | > 200 nM | > 200 nM | – | – | –
6 | COc1cc(C(F)(F)F)c(C(=O)Nc2cc(-c3cc(CN4CC[C@@H](S(C)(=O)=O)C4)ccc3F)ccc2N2CCN(C)CC2)cn1 [Example 57, (R)—N-(2′-fluoro-4-(4-methylpiperazin-1-yl)-5′-((3-(methylsulfonyl)pyrrolidin-1-yl)methyl)-[1,1′-biphenyl]-3-yl)-6-methoxy-4-(trifluoromethyl)nicotinamide] | > 200 nM | > 200 nM | – | – | –
7 | CN1CCCN(c2ccc(-c3cc(CN4CCOCC4)ccc3F)cc2NC(=O)c2c[nH]c(=O)cc2C(F)(F)F)CC1 [Example 88, N-(2′-fluoro-4-(4-methyl-1,4-diazepan-1-yl)-5′-(morpholinomethyl)-[1,1′-biphenyl]-3-yl)-6-oxo-4-(trifluoromethyl)-1,6-dihydropyridine-3-carboxamide] | 18 nM | 18 nM | 1.71 min | – | –
8 | CN1CCN(c2ccc(-c3cc(CN4CCOCC4)ccc3F)cc2NC(=O)c2ccc(=O)[nH]c2)CC1 [Example 105, N-(2′-fluoro-4-(4-methylpiperazin-1-yl)-5′-(morpholinomethyl)-[1,1′-biphenyl]-3-yl)-6-oxo-1,6-dihydropyridine-3-carboxamide] | 1950 nM | 1950 nM | – | – | –
9 | COc1cc(C(F)(F)F)c(C(=O)Nc2cc(-c3cc(CN4CCC(N5CCOCC5)CC4)ccc3F)ccc2N2CCN(C)CC2)cn1 [Example 52, N-(2′-fluoro-4-(4-methylpiperazin-1-yl)-5′-((4-morpholinopiperidin-1-yl)methyl)-[,1′-biphenyl]-3-yl)-6-methoxy-4-(trifluoromethyl)nicotinamide] | > 200 nM | > 200 nM | – | – | –
10 | CN1CCCN(c2ccc(-c3cc(CN4CCOCC4)ccc3F)cc2NC(=O)c2cn(C)c(=O)cc2C(F)(F)F)CC1 [Example 89, N-(2′-fluoro-4-(4-methyl-1,4-diazepan-1-yl)-5′-(morpholinomethyl)-[1,1′-biphenyl]-3-yl)-1-methyl-6-oxo-4-(trifluoromethyl)-1,6-dihydropyridine-3-carboxamide] | 235 nM | 235 nM | 0.07 min | – | –
11 | CN1CCN(c2ncc(-c3cc(CNC4CCCCC4)ccc3F)cc2NC(=O)c2c[nH]c(=O)cc2C(F)(F)F)CC1 [Example 85, N-(5-(5-((cyclohexylamino)methyl)-2-fluorophenyl)-2-(4-methylpiperazin-1-yl)pyridin-3-yl)-6-oxo-4-(trifluoromethyl)-1,6-dihydropyridine-3-carboxamide] | 15 nM | 14.8 nM | 0.78 min | – | –
12 | COC(=O)c1ccc(F)c(-c2ccc(N3CCN(C)CC3)c(NC(=O)c3c[nH]c(=O)cc3C(F)(F)F)c2)c1 [Example 14, methyl 6-fluoro-4′-(4-methylpiperazin-1-yl)-3′-(6-oxo-4-(trifluoromethyl)-1,6-dihydropyridine-3-carboxamido)-[1,1′-biphenyl]-3-carboxylate] | 26 nM | 26 nM | 1.36 min | – | –
13 | CN1CCN(c2ccc(-c3cc(OC(F)(F)F)ccc3F)cc2NC(=O)c2c[nH]c(=O)cc2C(F)(F)F)CC1 [Example 5, N-(2′-fluoro-4-(4-methylpiperazin-1-yl)-5′-(trifluoromethoxy)-[1,1′-biphenyl]-3-yl)-6-oxo-4-(trifluoromethyl)-1,6-dihydropyridine-3-carboxamide] | 29 nM | 29 nM | 1.88 min | – | –
14 | COc1cc(C(F)(F)F)c(C(=O)Nc2cc(-c3cc(CN4CCC(F)CC4)ccc3F)ccc2N2CCN(C)CC2)cn1 [Example 55, N-(2′-fluoro-5′-((4-fluoropiperidin-1-yl)methyl)-4-(4-methylpiperazin-1-yl)-[1,1′-biphenyl]-3-yl)-6-methoxy-4-(trifluoromethyl)nicotinamide] | > 200 nM | > 200 nM | – | – | –
15 | COc1cc(C(F)(F)F)c(C(=O)Nc2cc(-c3cc(CN4CCC(C(C)C)C4)ccc3F)ccc2N2CCN(C)CC2)cn1 (stereo in doubt) [Example 53, (R)—N-(2′-fluoro-5′-((3-isopropylpyrrolidin-1-yl)methyl)-4-(4-methylpiperazin-1-yl)-[1,1′-biphenyl]-3-yl)-6-methoxy-4-(trifluoromethyl)nicotinamide] | > 200 nM | > 200 nM | – | – | –
16 | CN1CCN(c2ccc(-c3ccc(N4CCCC4)nc3F)cc2NC(=O)c2c[nH]c(=O)cc2C(F)(F)F)CC1 [Example 22, N-(5-(2-fluoro-6-(pyrrolidin-1-yl)pyridin-3-yl)-2-(4-methylpiperazin-1-yl)phenyl)-6-oxo-4-(trifluoromethyl)-1,6-dihydropyridine-3-carboxamide] | 17 nM | 17 nM | 2.3 min | – | –
17 | CN1CCN(c2ccc(-c3cccc(CN4CCOCC4)c3F)cc2NC(=O)c2c[nH]c(=O)cc2C(F)(F)F)CC1 [Example 23, N-(2′-fluoro-4-(4-methylpiperazin-1-yl)-3′-(morpholinomethyl)-[1,1′-biphenyl]-3-yl)-6-oxo-4-(trifluoromethyl)-1,6-dihydropyridine-3-carboxamide] | 79 nM | 79 nM | 0.56 min | – | –
18 | C[C@@H]1CN(c2ccc(-c3cc(C(N)=O)c(F)cc3F)cc2NC(=O)c2c[nH]c(=O)cc2C(F)(F)F)C[C@H](C)N1C [Example 121, N-(5′-carbamoyl-2′,4′-difluoro-4-((3S,5R)-3,4,5-trimethylpiperazin-1-yl)-[1,1′-biphenyl]-3-yl)-6-oxo-4-(trifluoromethyl)-1,6-dihydropyridine-3-carboxamide] | 9.2 nM | 9 nM | 2.3 min | – | –
19 | C[C@@H]1CN(c2ccc(-c3ccc(C(N)=O)c(F)c3F)cc2NC(=O)c2c[nH]c(=O)cc2C(F)(F)F)C[C@H](C)N1C [Example 123, N-(4′-carbamoyl-2′,3′-difluoro-4-((3S,5R)-3,4,5-trimethylpiperazin-1-yl)-[1,1′-biphenyl]-3-yl)-6-oxo-4-(trifluoromethyl)-1,6-dihydropyridine-3-carboxamide] | 3.6 nM | 4 nM | 4.2 min | – | –
20 | CN1CCN(c2ccc(-c3cc(C(=O)NC4CCCCC4)ccc3F)cc2NC(=O)c2c[nH]c(=O)cc2C(F)(F)F)CC1 [drawing 291] | – | – | – | – | 6 nM
21 | CN(C)C1CCN(c2ccc(-c3cc(CN4CCOCC4)ccc3F)cc2NC(=O)c2cn(C)c(=O)cc2C(F)(F)F)C1 (centres unmarked) [Example 101, N-(4-(3-(dimethylamino)pyrrolidin-1-yl)-2′-fluoro-5′-(morpholinomethyl)-[1,1′-biphenyl]-3-yl)-1-methyl-6-oxo-4-(trifluoromethyl)-1,6-dihydropyridine-3-carboxamide] | 2270 nM | 2270 nM | – | – | –
22 | Cc1cc(C(=O)Nc2cc(-c3cc(CN4CCOCC4)ccc3F)ccc2N2CCCN(C)CC2)cc(C)c1F [Example 92, 4-fluoro-N-(2′-fluoro-4-(4-methyl-1,4-diazepan-1-yl)-5′-(morpholinomethyl)-[1,1′-biphenyl]-3-yl)-3,5-dimethylbenzamide] | 394 nM | 394 nM | – | – | –
23 | C[C@@H]1CN(c2ccc(-c3cc(CNC4CCCCC4)c(F)cc3F)cc2NC(=O)c2c[nH]c(=O)cc2C(F)(F)F)C[C@H](C)N1C [Example 79, N-(5′-((cyclohexylamino)methyl)-2′,4′-difluoro-4-((3S,5R)-3,4,5-trimethylpiperazin-1-yl)-[1,1′-biphenyl]-3-yl)-6-oxo-4-(trifluoromethyl)-1,6-dihydropyridine-3-carboxamide] | 2.5 nM | 2.5 nM | 16.4 min | – | –
24 | CN1CCN(c2ccc(-c3cc(CN4CCOCC4)ccc3F)cc2NC(=O)c2cc(F)cc3[nH]cnc23)CC1 [Example 102, 6-fluoro-N-(2′-fluoro-4-(4-methylpiperazin-1-yl)-5′-(morpholinomethyl)-[1,1′-biphenyl]-3-yl)-1H-benzo[d]imidazole-4-carboxamide] | > 200 nM | > 200 nM | – | – | –
25 | COc1cc(C(F)(F)F)c(C(=O)Nc2cc(-c3cc(CN4C5COCC4C5)ccc3F)ccc2N2CCN(C)CC2)cn1 [Example 56, N-(5′-(3-oxa-6-azabicyclo[3.1.1]heptan-6-ylmethyl)-2′-fluoro-4-(4-methylpiperazin-1-yl)-[1,1′-biphenyl]-3-yl)-6-methoxy-4-(trifluoromethyl)nicotinamide] | > 200 nM | > 200 nM | – | – | –
